Source: article PMC11201714, “Insights into the Effects of Ligand Binding on Leucyl-tRNA Synthetase Inhibitors for Tuberculosis: In Silico Analysis and Isothermal Titration Calorimetry Validation” (Biomolecules, 2024)
Converted amounts (≈) assume the structure as drawn.

What was measured:
[1] = test system: Leucyl-tRNA synthetase mRNA; experiment: Leucyl t-RNA synthetase gene expression inhibition (qPCR); format: cell-based; details: A549 cells, 25 µL (10 mM) overnight, RT-PCR, in words
[2] = test system: Wild-type Mycobacterium tuberculosis biofilm; experiment: Inhibition of mycobacterial biofilm formation (crystal violet)
[3] = molecular target: T1, leucyl t-RNA synthetase (LeuRS) (Mycobacterium tuberculosis, UniProt P9WFV1); experiment: biochemical; format: binding; details: for Binding Enthalpy ΔH / Kd: ITC; for Kd: pH 7.0, read-out: Floating Association Constant ka (converted)
T1 construct: purchased Sigma-Aldrich

[4] = test system: Mycobacterium tuberculosis strain H37Rv (ATCC 25618); experiment: Antimycobacterial activity, well diffusion method; format: cell-based; details: LJM agar, 6 weeks; for MIC: Mycobacterium tuberculosis
[5] = Conc. of Ligand/Protein 0.0125 µM
[6] = Conc. of Ligand/Protein 0.025 µM
[7] = Conc. of Ligand/Protein 0.050 µM
[8] = Conc. of Ligand/Protein 0.100 µM
[9] = Conc. of Ligand/Protein 0.200 µM
[10] = Conc. of Ligand/Protein 0.400 µM
[11] = Conc. of Ligand/Protein 0.800 µM
[12] = Conc. of Ligand/Protein 1.600 µM
[13] = Conc. of Ligand/Protein 3.20 µM
[14] = Conc. of Ligand/Protein 5.00 µM

T1 sequence (P9WFV1 whole entry): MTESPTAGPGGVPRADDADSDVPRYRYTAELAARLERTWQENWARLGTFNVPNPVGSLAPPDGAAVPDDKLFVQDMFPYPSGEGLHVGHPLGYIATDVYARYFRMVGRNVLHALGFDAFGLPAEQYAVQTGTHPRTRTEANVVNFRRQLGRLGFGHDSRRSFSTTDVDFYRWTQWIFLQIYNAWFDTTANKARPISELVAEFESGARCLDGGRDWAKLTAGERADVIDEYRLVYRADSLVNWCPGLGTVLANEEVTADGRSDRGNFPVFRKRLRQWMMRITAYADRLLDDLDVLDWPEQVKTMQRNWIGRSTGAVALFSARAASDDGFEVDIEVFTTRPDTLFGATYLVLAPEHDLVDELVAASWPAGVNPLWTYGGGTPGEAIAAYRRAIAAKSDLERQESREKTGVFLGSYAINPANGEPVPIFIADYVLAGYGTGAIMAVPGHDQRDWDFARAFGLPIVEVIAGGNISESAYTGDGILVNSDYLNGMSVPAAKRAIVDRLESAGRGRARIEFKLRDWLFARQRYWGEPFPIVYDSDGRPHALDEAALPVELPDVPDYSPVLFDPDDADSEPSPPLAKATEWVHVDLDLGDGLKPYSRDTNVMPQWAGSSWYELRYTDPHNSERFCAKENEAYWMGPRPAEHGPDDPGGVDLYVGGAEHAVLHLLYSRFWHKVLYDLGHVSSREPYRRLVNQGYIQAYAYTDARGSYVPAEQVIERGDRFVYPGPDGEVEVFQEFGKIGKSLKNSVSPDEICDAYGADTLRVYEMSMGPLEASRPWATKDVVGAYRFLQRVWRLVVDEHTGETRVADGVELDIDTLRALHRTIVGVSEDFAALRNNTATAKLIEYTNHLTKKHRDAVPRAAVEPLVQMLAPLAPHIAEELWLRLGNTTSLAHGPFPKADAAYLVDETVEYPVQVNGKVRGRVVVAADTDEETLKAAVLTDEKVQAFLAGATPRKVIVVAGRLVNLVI

Row | SMILES | OD (biofilm formation) ([2]; Conc. 5.0 (unit not given)) | OD (biofilm formation) ([2]; Conc. 10.0 (unit not given)) | OD (biofilm formation) ([2]; Conc. 15.0 (unit not given)) | OD (biofilm formation) ([2]; Conc. 20.0 (unit not given)) | OD (biofilm formation) ([2]; Conc. 25.0 (unit not given)) | ΔH for Ligands ([3]; Conc. of Ligand/Protein 00 µM) | ΔH for Ligands [3, 5] | ΔH for Ligands [3, 6] | ΔH for Ligands [3, 7] | ΔH for Ligands [3, 8] | ΔH for Ligands [3, 9] | ΔH for Ligands [3, 10] | ΔH for Ligands [3, 11] | ΔH for Ligands [3, 12] | ΔH for Ligands [3, 13] | ΔH for Ligands [3, 14] | Binding Enthalpy ΔH ([3]; 25 °C, pH 7.0, fitted) | Kd ([3]; 25 °C) | Zone of Inhibition [4] | MIC [4] | further results
1 | OB1OCc2cc(F)ccc21 [AN2690] | 0.4256 | 0.3658 | 0.2452 | 0.2048 | 0.0980 |  |  |  |  |  |  |  |  |  |  |  |  |  |  |  | LeuRS gene expression (copies of mRNA per cycle) [1]: lower copies of LeuRS
2 | CC(C)C(N)C(=O)OCC(CO)OCn1cnc2c(=O)[nH]c(N)nc21 (stereo not drawn) [Compound 1035, 2-((2-amino-6-oxo-1H-purin-9(6H)-yl)methoxy)-3-hydroxypropyl 2-amino-3-methylbutanoate] | 0.7685 | 0.6255 | 0.5454 | 0.3256 | 0.1854 | -20.76 kcal/mol | -19.51 kcal/mol | -18.06 kcal/mol | -15.16 kcal/mol | -13.83 kcal/mol | -10.49 kcal/mol | -8.164 kcal/mol | -5.521 kcal/mol | -3.884 kcal/mol | -3.023 kcal/mol | 0 kcal/mol | -11.75 kcal/mol | 23.9 µM | 13.68 ± 0.21 mm | 119.87 ± 0.1 µg/mL (≈ 338 µM) | 
3 | CC(C)(N)C(=O)N[C@H](Cc1c[nH]c2ccccc12)C(=O)N[C@H](Cc1c[nH]c2ccccc12)NC=O [Compound 1054, 2-amino-N-((R)-1-(((R)-1-formamido-2-(1H-indol-3-yl)ethyl)amino)-3-(1H-indol-3-yl)-1-oxopropan-2-yl)-2-methylpropanamide] | 0.5428 | 0.4548 | 0.3425 | 0.2186 | 0.1254 | -19.62 kcal/mol | -18.2 kcal/mol | -16.31 kcal/mol | -14.37 kcal/mol | -12.49 kcal/mol | -9.859 kcal/mol | -7.106 kcal/mol | -4.89 kcal/mol | -3.145 kcal/mol | -2.49 kcal/mol | 0 kcal/mol | -11.53 kcal/mol | 0.158 µM | 18.45 ± 0.19 mm | 186.4 ± 0.21 µg/mL (≈ 393 µM) | Binding Enthalpy ΔH [3]: -48.23 kL/mol; LeuRS gene expression (copies of mRNA per cycle) [1]: more effective in down-regulating the LeuRS gene; biofilm formation inhibitory activity ([2]; in words, compared to control / other compounds): higher inhibition in biofilm formation
4 | NCC[C@H](O)C(=O)N[C@@H]1C[C@H](N)[C@@H](O[C@H]2O[C@H](CN)[C@@H](O)[C@H](O)[C@H]2O)[C@H](O)[C@H]1O[C@H]1O[C@H](CO)[C@@H](O)[C@H](N)[C@H]1O [Compound 2077, (S)-4-amino-N-((1R,2S,3S,4R,5S)-5-amino-2-(((2S,3R,4S,5S,6R)-4-amino-3,5-dihydroxy-6-(hydroxymethyl)tetrahydro-2H-pyran-2-yl)oxy)-4-(((2R,3R,4S,5S,6R)-6-(aminomethyl)-3,4,5-trihydroxytetrahydro-2H-pyran-2-yl)oxy)-3-hydroxycyclohexyl)-2-hydroxybutanamide] | 0.7588 | 0.5358 | 0.3585 | 0.2544 | 0.1456 | -20.11 kcal/mol | -19.15 kcal/mol | -17.64 kcal/mol | -14.67 kcal/mol | -13.18 kcal/mol | -9.9 kcal/mol | -7.469 kcal/mol | -4.818 kcal/mol | -3.215 kcal/mol | -2.476 kcal/mol | 0 kcal/mol | -11.92 kcal/mol | 129 µM | 15.57 ± 0.80 mm | 147.4 ± 0.8 µg/mL (≈ 252 µM) | 
